Laboratory results from publication PMC6394990, “Detailed characterization of the solution kinetics and thermodynamics of biotin, biocytin and HABA binding to avidin and streptavidin” (PLoS ONE, 2019).
Where two headings read alike, the source gives them in different places.

Target: T1, avidin (AV) (Gallus gallus, UniProt P02701)
T1 construct: purchased Calbiochem (La Jolla, CA)
Experiment: Stopped-flow association kinetics of dye-labeled biotin probes binding to avidin (F(t), rF(t); Arrhenius plots/global fitting)
Parameters: ln(k) / dS+ / dG+ / Eon for BFl / b of the line y = m1x+b1: unit not given here
Settings: for k(average): k (full value)
Protocol: These reactions were carried out in a buffered solution of 10 mM Tris-HCl, 100 mM KCl, 2.5 mM MgCl2 and 1 mM CaCl2 at pH 8 and only AV-BcO reactions included pH 9 and 10. The concentrations, after mixing, were of 20 nM of dye-labeled B7 probe and 260 nM, 520 nM or 1040 nM of AV; and 200 nM, 300 nM, 400 nM or 800 nM of SAV at temperatures of 10, 15, 20 and 25°C. The deglycosylation of AV (for comparative association reactions) was carried out using the provided standard protocol with endoglycosidase H [47], both with and without incubation of a denaturant solution (2% SDS and 1M 2-mercaptoethanol).
The reactions were collected with the SF instrument, described previously. The fluorescence signal was collected through a 520 nm interference filter (Oriel Corp., Stratford, CT) with a detector time constant and SF dead time of 1 μs and 1 ms, respectively. The excitation light was provided by the Coherent Ar^+ ion laser (described above) at 488 nm with […] of incident power on the reaction cuvette. The laser source was followed by the photo-elastic modulator described above with the axis oriented 45^o with respect to the electric vector of the incident light and with the half-wave modulation (50 kHz) set for 488 nm excitation. The demodulation circuitry following the photomultiplier provided a DC(t) and a rectified AC(t) which were converted to digital data by a high-speed digitizer (PCI-5122) from National Instruments (Austin, TX) with 14-bit resolution and 100 MHz bandwidth, through channels 0 and 1. The data acquisition was controlled by LabVIEW (Vr 8) software at a collection rate of 6120 data points/second and stored in spreadsheets. The AC(t) and DC(t) data were baseline corrected before obtaining the signal ratio (Eq 4) as a function of time (ρt).
The constant AGain is the instrumental amplitude gain and was evaluated by solving ρ(t) using the known steady state anisotropy (rss) of the complexes which is equivalent to the r(t) at t = ∞; and H, obtained from the equivalent grating factor (G) for the filters and photo multiplier tubes in the SF. For the probes used in here G was 0.82 and H = (1-G)/(1+G) = 0.099. Knowing Again and H, the AC(t) and DC(t) signals can be solved for r(t) and F(t) (Eqs 4 and 5) and the normalized fluorescence, F¯(t) , and corrected fluorescence anisotropy, rF¯(t), were obtained when F¯(0) and rF¯(0) were scaled to 1 at t = 0.
The F¯(t) (Eq 6) is equivalent to (I||) + 2 (I⊥) and proportional to quantum yield (QYi), molar absorptivity (εi) and to the formation or disappearance of the emitting species Xi(t); and rF¯(t) including the steady state anisotropies (rss) of each fluorescent species (Eq 7).
The possible reaction models were discriminated by the squared residuals of the observed and calculated association traces of both fluorescence and anisotropy fluorescence signals, F¯(t) and rF¯(t) , respectively.

T1 sequence (P02701 25-152): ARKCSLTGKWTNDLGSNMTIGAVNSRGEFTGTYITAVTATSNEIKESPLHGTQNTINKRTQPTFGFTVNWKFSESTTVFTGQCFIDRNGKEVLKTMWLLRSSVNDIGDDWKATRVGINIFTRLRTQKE

NC(CCCCNC(=O)CCCC[C@@H]1SC[C@@H]2NC(=O)N[C@@H]21)C(=O)NCCCCCNC(=O)c1ccc(-c2c3cc(F)c(=O)cc-3oc3cc(O)c(F)cc23)c(C(=O)O)c1 (some centres unmarked) [BcO, Oregon green 488 Biocytin]
kon fold slower than Green's 7 × 10^7 M^-1s^-1 (25°C and pH 8 vs 25°C and pH 5): 7.4 X
fold by which the SPR kon (ref 20) is slower than the kon of the probe (AV): ~ 5 X
b of the line y = m1x+b1 (AV 1, reacting with BcO): 40.2925
slope, m of the line y = m1x+b1 (AV 1, reacting with BcO, x = 1/Temp): -7277.8
kon by corrected fluorescence anisotropy rF(t) (AV-BcO, 10 °C, 260 nM): 2.7e+06 ± 100000 M⁻¹ s⁻¹
kon (AV-BcO, 10 °C, 260 nM, read-out: kon by corrected fluorescence anisotropy rF(t)): 2.65e+06 M⁻¹ s⁻¹
kon (AV-BcO, 10 °C, 260 nM, read-out: kon by fluorescence change F(t)): 2.4e+06 ± 100000 M⁻¹ s⁻¹
kon (AV-BcO, 10 °C, 260 nM, read-out: kon by fluorescence change F(t), right block without spread): 2.42e+06 M⁻¹ s⁻¹
kon by corrected fluorescence anisotropy rF(t) (AV-BcO, 10 °C, 520 nM): 2.7e+06 ± 100000 M⁻¹ s⁻¹
kon (AV-BcO, 10 °C, 520 nM, read-out: kon by corrected fluorescence anisotropy rF(t)): 2.69e+06 M⁻¹ s⁻¹
kon (AV-BcO, 10 °C, 520 nM, read-out: kon by fluorescence change F(t)): 2.6e+06 ± 200000 M⁻¹ s⁻¹
kon (AV-BcO, 10 °C, 520 nM, read-out: kon by fluorescence change F(t), right block without spread): 2.61e+06 M⁻¹ s⁻¹
kon by corrected fluorescence anisotropy rF(t) (AV-BcO, 10 °C, 1040 nM): 2.7e+06 ± 100000 M⁻¹ s⁻¹
kon (AV-BcO, 10 °C, 1040 nM, read-out: kon by corrected fluorescence anisotropy rF(t)): 2.72e+06 M⁻¹ s⁻¹
kon (AV-BcO, 10 °C, 1040 nM, read-out: kon by fluorescence change F(t)): 2.5e+06 ± 200000 M⁻¹ s⁻¹
kon (AV-BcO, 10 °C, 1040 nM, read-out: kon by fluorescence change F(t), right block without spread): 2.52e+06 M⁻¹ s⁻¹
kon (AV-BcO, 10 °C, average of F(t) and rF(t) at 260, 520, 1040 nM, read-out: kon, Average): 2.6e+06 M⁻¹ s⁻¹
kon by corrected fluorescence anisotropy rF(t) (AV-BcO, 15 °C, 260 nM): 4e+06 ± 100000 M⁻¹ s⁻¹
kon (AV-BcO, 15 °C, 260 nM, read-out: kon by corrected fluorescence anisotropy rF(t)): 4e+06 M⁻¹ s⁻¹
kon (AV-BcO, 15 °C, 260 nM, read-out: kon by fluorescence change F(t)): 4.1e+06 ± 100000 M⁻¹ s⁻¹
kon (AV-BcO, 15 °C, 260 nM, read-out: kon by fluorescence change F(t), right block without spread): 4.1e+06 M⁻¹ s⁻¹
kon by corrected fluorescence anisotropy rF(t) (AV-BcO, 15 °C, 520 nM): 3.82e+06 ± 100000 M⁻¹ s⁻¹
kon (AV-BcO, 15 °C, 520 nM, read-out: kon by corrected fluorescence anisotropy rF(t)): 3.82e+06 M⁻¹ s⁻¹
kon (AV-BcO, 15 °C, 520 nM, read-out: kon by fluorescence change F(t)): 3.95e+06 ± 100000 M⁻¹ s⁻¹
kon (AV-BcO, 15 °C, 520 nM, read-out: kon by fluorescence change F(t), right block without spread): 3.95e+06 M⁻¹ s⁻¹
kon by corrected fluorescence anisotropy rF(t) (AV-BcO, 15 °C, 1040 nM): 4e+06 ± 200000 M⁻¹ s⁻¹
kon (AV-BcO, 15 °C, 1040 nM, read-out: kon by corrected fluorescence anisotropy rF(t)): 4e+06 M⁻¹ s⁻¹
kon (AV-BcO, 15 °C, 1040 nM, read-out: kon by fluorescence change F(t)): 3.9e+06 ± 200000 M⁻¹ s⁻¹
kon (AV-BcO, 15 °C, 1040 nM, read-out: kon by fluorescence change F(t), right block without spread): 3.9e+06 M⁻¹ s⁻¹
kon (AV-BcO, 15 °C, average of F(t) and rF(t) at 260, 520, 1040 nM, read-out: kon, Average): 4e+06 M⁻¹ s⁻¹
kon (AV-BcO, 20 °C, 260 nM, read-out: kon by corrected fluorescence anisotropy rF(t)): 5.9e+06 M⁻¹ s⁻¹
kon (AV-BcO, 20 °C, 260 nM, read-out: kon by fluorescence change F(t)): 5.7e+06 ± 100000 M⁻¹ s⁻¹
kon (AV-BcO, 20 °C, 260 nM, read-out: kon by fluorescence change F(t), right block without spread): 5.7e+06 M⁻¹ s⁻¹
kon by corrected fluorescence anisotropy rF(t) (AV-BcO, 20 °C, 520 nM): 5.8e+06 ± 100000 M⁻¹ s⁻¹
kon (AV-BcO, 20 °C, 520 nM, read-out: kon by corrected fluorescence anisotropy rF(t)): 5.8e+06 M⁻¹ s⁻¹
kon (AV-BcO, 20 °C, 520 nM, read-out: kon by fluorescence change F(t)): 5.9e+06 ± 300000 M⁻¹ s⁻¹
kon (AV-BcO, 20 °C, 520 nM, read-out: kon by fluorescence change F(t), right block without spread): 5.9e+06 M⁻¹ s⁻¹
kon by corrected fluorescence anisotropy rF(t) (AV-BcO, 20 °C, 1040 nM): 6.1e+06 ± 100000 M⁻¹ s⁻¹
kon (AV-BcO, 20 °C, 1040 nM, read-out: kon by corrected fluorescence anisotropy rF(t)): 6.1e+06 M⁻¹ s⁻¹
kon (AV-BcO, 20 °C, 1040 nM, read-out: kon by fluorescence change F(t)): 6e+06 ± 100000 M⁻¹ s⁻¹
kon (AV-BcO, 20 °C, 1040 nM, read-out: kon by fluorescence change F(t), right block without spread): 6e+06 M⁻¹ s⁻¹
kon (AV-BcO, 20 °C, average of F(t) and rF(t) at 260, 520, 1040 nM, read-out: kon, Average): 5.9e+06 M⁻¹ s⁻¹
kon (AV-BcO, 25 °C, 260 nM, read-out: kon by corrected fluorescence anisotropy rF(t)): 9.5e+06 M⁻¹ s⁻¹
kon (AV-BcO, 25 °C, 260 nM, read-out: kon by fluorescence change F(t)): 9.5e+06 ± 100000 M⁻¹ s⁻¹
kon (AV-BcO, 25 °C, 260 nM, read-out: kon by fluorescence change F(t), right block without spread): 9.5e+06 M⁻¹ s⁻¹
kon (AV-BcO, 25 °C, 520 nM, read-out: kon by corrected fluorescence anisotropy rF(t)): 9.5e+06 M⁻¹ s⁻¹
kon (AV-BcO, 25 °C, 520 nM, read-out: kon by fluorescence change F(t)): 9.5e+06 ± 300000 M⁻¹ s⁻¹
kon (AV-BcO, 25 °C, 520 nM, read-out: kon by fluorescence change F(t), right block without spread): 9.5e+06 M⁻¹ s⁻¹
kon by corrected fluorescence anisotropy rF(t) (AV-BcO, 25 °C, 1040 nM): 9.4e+06 ± 200000 M⁻¹ s⁻¹
kon (AV-BcO, 25 °C, 1040 nM, read-out: kon by corrected fluorescence anisotropy rF(t)): 9.4e+06 M⁻¹ s⁻¹
kon (AV-BcO, 25 °C, 1040 nM, read-out: kon by fluorescence change F(t)): 9.7e+06 ± 300000 M⁻¹ s⁻¹
kon (AV-BcO, 25 °C, 1040 nM, read-out: kon by fluorescence change F(t), right block without spread): 9.7e+06 M⁻¹ s⁻¹
kon (AV-BcO, 25 °C, average of F(t) and rF(t) at 260, 520, 1040 nM, read-out: kon, Average): 9.5e+06 M⁻¹ s⁻¹
Ea^Forward (AV, pH 8): 14.4 ± 0.6 kcal/mol
ln(k) (AV, pH8, 10 (283.15 K)): 14.8
k(average) (AV, pH8, 10 (283.15 K)): 2.60E+06
kon (AV, pH8, 10 (283.15 K), k (scaled)): 2.6e+06 M⁻¹ s⁻¹
ln(k) (AV, pH8, 15 (288.15 K)): 15.2
k(average) (AV, pH8, 15 (288.15 K)): 3.90E+06
kon (AV, pH8, 15 (288.15 K), k (scaled)): 3.9e+06 M⁻¹ s⁻¹
ln(k) (AV, pH8, 20 (293.15 K)): 15.6
k(average) (AV, pH8, 20 (293.15 K)): 5.90E+06
kon (AV, pH8, 20 (293.15 K), k (scaled)): 5.9e+06 M⁻¹ s⁻¹
ln(k) (AV, pH8, 25 (298.15 K)): 16.1
k(average) (AV, pH8, 25 (298.15 K)): 9.50E+06
kon (AV, pH8, 25 (298.15 K), k (scaled)): 9.5e+06 M⁻¹ s⁻¹
ΔG^ǂ (AV, pH 8, forward): 4.6 ± 0.3 kcal/mol
ΔS^ǂ (AV, pH 8, forward): 33.0 ± 2.5 cal/°K·mol
Ea^Forward (AV, pH 9): 13.9 ± 0.7 kcal/mol
ln(k) (AV, pH 9, 10 (283.15 K)): 14.7
k(average) (AV, pH 9, 10 (283.15 K)): 2.31E+06
kon (AV, pH 9, 10 (283.15 K), k (scaled)): 2.3e+06 M⁻¹ s⁻¹
ln(k) (AV, pH 9, 15 (288.15 K)): 15.0
k(average) (AV, pH 9, 15 (288.15 K)): 3.36E+06
